Assays:
Experiment in all cases: relative viability (nuclei count vs DMSO), 5 days (fraction); higher = more cells survive
[1] = tested on: NCI-H647
Method in brief: (§1)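 Lung cancer cell lines in 1536-well plates were dosed by pin tool the day after seeding, either with one drug alone or with a fixed anchor-drug dose plus five library-drug doses (not always all listed) in √10 steps. After 5 days, cells were fixed and their nuclei stained in one step (final 0.05% Triton X-100, 1% formaldehyde, 1 ug/ml Hoechst), then counted on 4× images. Relative viability is the nuclei count in treated wells divided by that in vehicle wells. Values are medians of duplicate plates.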

[2] = tested on: NCI-H1437
Method in brief: as §1

[3] = tested on: HCC-15
Method in brief: as §1

[4] = tested on: NCI-H1651
Method in brief: as §1

[5] = tested on: HCC-827
Method in brief: as §1

[6] = tested on: UMC-11
Method in brief: as §1

[7] = tested on: 201T
Method in brief: as §1

[8] = tested on: EPLC-272H
Method in brief: as §1

[9] = tested on: COR-L 105
Method in brief: as §1

[10] = tested on: NCI-H727
Method in brief: as §1

[11] = tested on: NCI-H2087
Method in brief: as §1

[12] = tested on: H3255
Method in brief: as §1

[13] = tested on: COR-L23
Method in brief: as §1

[14] = tested on: NCI-H1792
Method in brief: as §1

[15] = tested on: NCI-H1975
Method in brief: as §1

[16] = tested on: EKVX
Method in brief: as §1

[17] = tested on: NCI-H358
Method in brief: as §1

[18] = tested on: NCI-H1650
Method in brief: as §1

[19] = tested on: HCC-44
Method in brief: as §1

[20] = tested on: ABC-1
Method in brief: as §1

[21] = tested on: NCI-H520
Method in brief: as §1

[22] = tested on: LCLC-103H
Method in brief: as §1

[23] = tested on: NCI-H661
Method in brief: as §1

Q: What does the source list for `O=C(O)CCCCC(CCSCc1ccccc1)SCc1ccccc1` (stereo not drawn) [CPI-613] + CCNC(=O)c1noc(-c2cc(C(C)C)c(O)cc2O)c1-c1ccc(CN2CCOCC2)cc1 [Luminespib] (partner 0.01 µM)?
A: relative viability ([1]; first compound 5 µM): 0.133; relative viability ([1]; first compound 15.81 µM): 0.152; relative viability ([1]; first compound 50 µM): 0.113; relative viability ([1]; first compound 158.11 µM): 0.144; relative viability ([1]; first compound 500 µM): 0.119; relative viability ([2]; first compound 5 µM): 1.09; relative viability ([2]; first compound 15.81 µM): 1.04; relative viability ([2]; first compound 50 µM): 1.07; relative viability ([2]; first compound 158.11 µM): 0.53; relative viability ([2]; first compound 500 µM): 0.0571; relative viability ([3]; first compound 5 µM): 0.297; relative viability ([3]; first compound 15.81 µM): 0.424; relative viability ([3]; first compound 50 µM): 0.304; relative viability ([3]; first compound 158.11 µM): 0.0775; relative viability ([3]; first compound 500 µM): 0.0498; relative viability ([4]; first compound 5 µM): 0.867; relative viability ([4]; first compound 15.81 µM): 0.932; relative viability ([4]; first compound 50 µM): 0.841; relative viability ([4]; first compound 158.11 µM): 0.185; relative viability ([4]; first compound 500 µM): 0.118; relative viability ([5]; first compound 5 µM): 0.416; relative viability ([5]; first compound 15.81 µM): 0.615; relative viability ([5]; first compound 50 µM): 0.774; relative viability ([5]; first compound 158.11 µM): 0.633; relative viability ([5]; first compound 500 µM): 0.329; relative viability ([6]; first compound 5 µM): 0.977; relative viability ([6]; first compound 15.81 µM): 1.02; relative viability ([6]; first compound 50 µM): 0.955; relative viability ([6]; first compound 158.11 µM): 0.148; relative viability ([6]; first compound 500 µM): 0.112; relative viability ([7]; first compound 5 µM): 1.05; relative viability ([7]; first compound 15.81 µM): 0.973; relative viability ([7]; first compound 50 µM): 1.01; relative viability ([7]; first compound 158.11 µM): 0.258; relative viability ([7]; first compound 500 µM): 0.0468; relative viability ([8]; first compound 5 µM): 0.338; relative viability ([8]; first compound 15.81 µM): 0.32; relative viability ([8]; first compound 50 µM): 0.575; relative viability ([8]; first compound 158.11 µM): 0.0624; relative viability ([8]; first compound 500 µM): 0.0121; relative viability ([9]; first compound 5 µM): 0.749; relative viability ([9]; first compound 15.81 µM): 0.727; relative viability ([9]; first compound 50 µM): 0.692; relative viability ([9]; first compound 158.11 µM): 0.421; relative viability ([9]; first compound 500 µM): 0.127; relative viability ([10]; first compound 5 µM): 0.274; relative viability ([10]; first compound 15.81 µM): 0.641; relative viability ([10]; first compound 50 µM): 0.286; relative viability ([10]; first compound 158.11 µM): 0.188; relative viability ([10]; first compound 500 µM): 0.115; relative viability ([11]; first compound 5 µM): 0.182; relative viability ([11]; first compound 15.81 µM): 0.165; relative viability ([11]; first compound 50 µM): 0.155; relative viability ([11]; first compound 158.11 µM): 0.0422; relative viability ([11]; first compound 500 µM): 0.026; relative viability ([12]; first compound 5 µM): 0.822; relative viability ([12]; first compound 15.81 µM): 0.802; relative viability ([12]; first compound 50 µM): 0.879; relative viability ([12]; first compound 500 µM): 0.878; relative viability ([13]; first compound 5 µM): 0.58; relative viability ([13]; first compound 15.81 µM): 0.61; relative viability ([13]; first compound 50 µM): 0.664; relative viability ([13]; first compound 158.11 µM): 0.108; relative viability ([13]; first compound 500 µM): 0.0308; relative viability ([14]; first compound 5 µM): 0.512; relative viability ([14]; first compound 15.81 µM): 0.396; relative viability ([14]; first compound 50 µM): 0.375; relative viability ([14]; first compound 158.11 µM): 0.353; relative viability ([14]; first compound 500 µM): 0.39; relative viability ([15]; first compound 5 µM): 0.173; relative viability ([15]; first compound 15.81 µM): 0.171; relative viability ([15]; first compound 50 µM): 0.194; relative viability ([15]; first compound 158.11 µM): 0.141; relative viability ([15]; first compound 500 µM): 0.28; relative viability ([16]; first compound 5 µM): 0.834; relative viability ([16]; first compound 15.81 µM): 0.881; relative viability ([16]; first compound 50 µM): 0.864; relative viability ([16]; first compound 158.11 µM): 0.814; relative viability ([16]; first compound 500 µM): 0.803; relative viability ([17]; first compound 5 µM): 0.287; relative viability ([17]; first compound 15.81 µM): 0.249; relative viability ([17]; first compound 50 µM): 0.356; relative viability ([17]; first compound 158.11 µM): 0.414; relative viability ([17]; first compound 500 µM): 0.408; relative viability ([18]; first compound 5 µM): 0.213; relative viability ([18]; first compound 15.81 µM): 0.224; relative viability ([18]; first compound 50 µM): 0.194; relative viability ([18]; first compound 158.11 µM): 0.168; relative viability ([18]; first compound 500 µM): 0.0166; relative viability ([19]; first compound 5 µM): 0.964; relative viability ([19]; first compound 15.81 µM): 0.939; relative viability ([19]; first compound 50 µM): 1.04; relative viability ([19]; first compound 158.11 µM): 0.495; relative viability ([19]; first compound 500 µM): 0.121; relative viability ([20]; first compound 5 µM): 0.629; relative viability ([20]; first compound 50 µM): 0.776; relative viability ([20]; first compound 158.11 µM): 0.185; relative viability ([20]; first compound 500 µM): 0.183; relative viability ([21]; first compound 5 µM): 0.196; relative viability ([21]; first compound 15.81 µM): 0.204; relative viability ([21]; first compound 50 µM): 0.214; relative viability ([21]; first compound 158.11 µM): 0.197; relative viability ([21]; first compound 500 µM): 0.181; relative viability ([22]; first compound 5 µM): 0.924; relative viability ([22]; first compound 15.81 µM): 0.825; relative viability ([22]; first compound 50 µM): 0.846; relative viability ([22]; first compound 158.11 µM): 0.811; relative viability ([22]; first compound 500 µM): 0.269; relative viability ([23]; first compound 5 µM): 0.887; relative viability ([23]; first compound 15.81 µM): 0.904; relative viability ([23]; first compound 50 µM): 0.916; relative viability ([23]; first compound 158.11 µM): 0.468; relative viability ([23]; first compound 500 µM): 0.141

From the supplement of paper PMC10307832
